Measured values: patent US20090123979A1, “Methods of reducing the inhibitory effect of a tannin on the enzymatic hydrolysis of cellulosic material” (Novozymes, Inc., priority 2007, published 2009)

What was measured:
[1] = test system: T1, Cellulolytic Enzyme Composition #1; assay: PCS hydrolysis by Cellulolytic Enzyme Composition #1 with added compounds; assay type: biochemical, Trichoderma reesei; conditions: for loss in initial rate of PCS hydrolysis / loss in the extent of PCS hydrolysis at day 4: 50 g PCS, 0.25 g enzyme per liter, methyl gallate and ellagic acid 10 mM, tannic acid 1 mM; for effect on hydrolysis of PCS by Cellulolytic Enzyme Composition #1: 1 mM each compound, 43.4 g PCS and 0.25 g enzyme per liter, pH 5.0, 50° C.
T1 construct: other: PASC hydrolysis; mean ± SD; 0.01 g enzyme; Dixon plot linear regression intercept (1/Rate); other: AVICEL; rate from hydrolysis difference (%) at 0 and 6 hours; rate from hydrolysis difference; fused on or other part: The A. oryzae beta-glucosidase is the mature chain secreted behind the Humicola insolens endoglucanase V signal peptide, which is cleaved off
Procedure: (§1) Corn stover was pretreated at the U.S. Department of Energy National Renewable Energy Laboratory (NREL), […], Colo., USA, using dilute sulfuric acid. The following conditions were used for the pretreatment: 1.4 wt % sulfuric acid at 195° C. for 4.5 minutes. According to limit digestion with excess cellulase enzymes, the water-insoluble solids in the pretreated corn stover (PCS) contained 59.5% cellulose. Prior to use, the PCS was washed with a large volume of deionized water until soluble acid and sugars were removed. The dry weight of the water-washed PCS was 19.16%.
(§2) The effect of a mixture of tannic acid, ellagic acid, epicatechin, and six lignin constituent compounds (4-hydroxyl-2-methylbenzoic acid, vanillin, coniferyl alcohol, coniferyl aldehyde, ferulic acid, and syringaldehyde) was determined on the hydrolysis of PCS by Cellulolytic Enzyme Composition #1 or Cellulolytic Enzyme Composition #2. […] Cellulolytic Enzyme Composition #1 or Cellulolytic Enzyme Composition #2 was added at 0.25 g per liter. Reactions without the addition of the compounds served as controls. The capped tubes were incubated at 50° C. in an INNOVA® 4080 incubator shaker (New Brunswick Scientific Co., Inc., Edison, N.J., USA) at 150 rpm.
(§3) Aliquots of the suspensions, sampled over time, were filtered by centrifugation using a 0.45 μm MULTISCREEN® HV membrane (Millipore, Billerica, Mass., USA) at 2000 rpm for 15 minutes using a SORVALL® RT7 centrifuge (Thermo Fisher Scientific, Waltham, Mass., USA). When not used immediately, the filtered aliquots were frozen at −20° C. Sugar concentrations of the samples diluted in 0.005 M H2SO4 were measured after elution by 0.005 M H2SO4 at a flow rate of 0.4 ml/minute from a 4.6×250 mm AMINEX® HPX-87H column (Bio-Rad, Hercules, Calif., USA) at 65° C. with quantitation by integration of glucose and cellobiose using refractive index detection (CHEMSTATION®, AGILENT® 1100 HPLC, Agilent Technologies, Santa Clara, Calif., USA) calibrated with standards of glucose and cellobiose. The resultant equivalents were used to calculate the percentage of cellulose conversion for each reaction.
(§4) The degree of cellulose conversion to glucose plus cellobiose sugars (conversion, %) was calculated using the following equation:
(§5) Conversion(%)=(glucose+cellobiose×1.053)(mg/ml)×100×162/cellulose(mg/ml)×180)=(glucose+cellobiose×1.053)(mg/ml)×100/(cellulose(mg/ml)×1.111)
(§6) In this equation the factor 1.111 reflects the weight gain in converting cellulose to glucose, and the factor 1.053 reflects the weight gain in converting cellobiose to glucose. Cellulose in PCS was determined by a limit digest of PCS to release glucose and cellobiose.
(§7) Example 30 was repeated except that each compound was tested separately. […] Reactions without the addition of each compound served as controls.
(§8) The effect of OPC or flavonol on the hydrolysis of PCS by Cellulolytic Enzyme Composition #1 or Cellulolytic Enzyme Composition #2 was determined according to the procedure described in Example 30. OPC and flavonol were present at a concentration of 1 mM. Reactions without the addition of the compounds served as controls.
Methyl gallate and ellagic acid were compared at 10 mM to 1 mM tannic acid in the hydrolysis of PCS by Cellulolytic Enzyme Composition #1.

[2] = test system: T2, Cellulolytic Enzyme Composition #2; assay: PCS hydrolysis by Cellulolytic Enzyme Composition #2 with added compounds; assay type: biochemical, Trichoderma reesei; conditions: 1 mM each compound; 43.4 g PCS and 0.25 g enzyme per liter, pH 5.0, 50° C.
T2 construct: Dixon plot linear regression intercept (1/Rate); other: PCS; rate from hydrolysis difference (%) at 0 and 5 hours; rate from hydrolysis difference (%); Ki (x-intercept of Dixon plot); other: PCS hydrolysis, Cellulolytic Enzyme Composition #2; OPC flavonol-equivalent; Ki expressed as galloyl constituents; oth; fused on or other part: In one component the Humicola insolens endoglucanase V (CEL45A) core is fused in front of the A. oryzae beta-glucosidase
Procedure: as §1, §2, §3, §4, §5, §6, §7, §8
(§9) The effective inhibitory concentration range for tannic acid and OPC was also determined by the “mini-scale” hydrolysis described in Example 30 with Cellulolytic Enzyme Composition #2. The concentration of tannic acid ranged from 0.1 mM to 1 mM, while the concentration of OPC ranged from 0.1 mM to 10 mM. Reactions without the addition of the tannic compounds served as controls.
(§10) However, prior to the addition of Cellulolytic Enzyme Composition #2, the mixture of PCS or OPC and tannic acid was treated with Aspergillus oryzae tannase (Novozymes A/S, Bagsværd, Denmark) at 10% of the final protein level for 30 minutes. Reactions without addition of the tannic acid, OPC, or tannase served as controls.

[3] = test system: Cellulolytic Enzyme Composition #2; assay: as above; assay type: biochemical, Trichoderma reesei; conditions: tannase alone, in the absence of tannic acid or OPC
Procedure: as §1, §2, §3, §4, §5, §6, §7, §8, §9, §10

[4] = Tannase reduction of tannic acid inhibition of PCS hydrolysis by Cellulolytic Enzyme Composition #2; assay type: biochemical; conditions: 1 mM tannic acid; 43 g PCS per liter; tannase at 10% of final protein level for 30 minutes
Procedure: (§11) Tannase was evaluated for its ability to reduce the inhibitory effect of tannic acid on OPC on PCS hydrolysis by Cellulolytic Enzyme Composition #2.
as §10

[5] = Tannase reduction of OPC inhibition of PCS hydrolysis by Cellulolytic Enzyme Composition #2; assay type: biochemical; conditions: 10 mM OPC; 43 g PCS per liter; tannase at 10% of final protein level for 30 minutes
Procedure: as §11, §10

[6] = Tannase reduction of tannic acid inhibition of PCS hydrolysis by Cellulolytic Enzyme Composition #1; assay type: biochemical; conditions: 1 mM tannic acid
Procedure: To reduce the inhibition, tannase was added at 12.5, 25, and 50 mg per liter (or 0.21, 0.42, and 0.85 μM).

Molecule | loss in initial rate of PCS hydrolysis [1] | loss in the extent of PCS hydrolysis at day 4 [1] | effect on hydrolysis of PCS by Cellulolytic Enzyme Composition #1 [1] | further results
COC(=O)c1cc(O)c(O)c(O)c1 [methyl gallate] | ~10% | ~10% | – | –
O=c1c(O)c(-c2ccccc2)oc2ccccc12 [flavonol] | – | – | not its constituent flavonol, was inhibitory | effect on hydrolysis of PCS by Cellulolytic Enzyme Composition #2 [2]: not inhibitory
O=c1oc2c(O)c(O)cc3c(=O)oc4c(O)c(O)cc1c4c23 [ellagic acid] | ~30% | ~40% | but not its constituent ellagic acid (FIG. 17C), significantly inhibited | –
Aspergillus oryzae tannase: Aspergillus oryzae tannase (Novozymes A/S, Bagsværd, Denmark) (protein, listed as Aspergillus oryzae) MPSLRRLLPFLAAGSAALASQDTFQGKCTGFADKINLPNVRVNFVNYVPGGTNLSLPDNPTSCGTTSQVVSEDVCRIAMAVATSNSSEITLEAWLPQNYTGRFLSTGNGGLSGCIQYYDLAYTSGLGFATVGANSGHNGTSGEPFYHHPEVLEDFVHRSVHTGVVVGKQLTKLFYEEGFKKSYYLGCSTGGRQGFKSVQKYPNDFDGVVAGAPAFNMINLMSWSAHFYSITGPVGSDTYLSPDLWNITHKEILRQCDGIDGAEDGIIEDPSLCSPVLEAIICKPGQNTTECLTGKQAHTVREIFSPLYGVNGTLLYPRMQPGSEVMASSIMYNGQPFQYSADWYRYVVYENPNWDATKFSVRDAAVALKQNPFNLQTWDADISSFRKAGGKVLTYHGLMDQLISSENSKLYYARVAETMNVPPEELDEFYRFFQISGMAHCSGGDGAYGIGNQLVTYNDANPENNVLMAMVQWVEKGIAPETIRGAKFTNGTGSAVEYTRKHCRYPRRNVYKGPGNYTDENAWQCV | – | – | – | increase in hydrolysis extent of PCS by Cellulolytic Enzyme Composition #2 [3]: approximately 2%; effect of tannase pretreatment on the inhibitory effect of tannic acid on Cellulolytic Enzyme Composition #2 [4]: significantly reduced; effect of tannase pretreatment on the inhibitory effect of OPC on Cellulolytic Enzyme Composition #2 [5]: significantly reduced; reduction of tannic acid inhibition ([6]; tannase at approximately 12 mg per liter): approximately 50%; reduction of tannic acid inhibition ([6]; tannase at approximately 25 mg per liter): ~100%
